Values quoted from earlier work, collected in patent publication US12414914B2, “Docetaxel composition for injection and preparation method therefor” (BIKA BIOTECHNOLOGY (GUANGZHOU) CO., LTD, priority 2018, dated 2025).

How the values were obtained:
microtubules [1] = system: microtubules
microtubules [2] = settings: compared to paclitaxel
cancer cells = settings: compared to paclitaxel

- stability in alkaline conditions (alkaline conditions): unstable in alkaline conditions
- solubility in ethanol (ethanol): soluble in ethanol
- solubility in water (water): practically insoluble in water
Compound: CC(=O)O[C@@]12CO[C@@H]1C[C@H](O)[C@@]1(C)C(=O)[C@H](O)C3=C(C)[C@@H](OC(=O)[C@H](O)[C@@H](NC(=O)OC(C)(C)C)c4ccccc4)C[C@@](O)([C@@H](OC(=O)c4ccccc4)[C@H]21)C3(C)C (relative stereo) [docetaxel, [2aR-(2aα, 4β, 4aβ, 6β, 9α, (aR*, βS*), 11α, 12α, 12aα, 12bα)]-β-[[(1,1-dimethylethoxy)carbonyl]amino]-α-hydroxybenzene propanoic acid [12b-acetyloxy-12-benzoyloxy-2a, 3,4,4a, 5,6,9, 10, 11, 12, 12a, 12b-dodecahydro-4,6, 11-trihydroxy-4a, 8, 13, 13-tetramethyl-5-oxo-7, 11-methano-1H-cyclodeca-[3, 4]benz [1,2-b]oxet-9-yl] ester]
- Affinity to microtubules compared to paclitaxel (microtubules [1]): 2 times higher
- activity as microtubule stabilizer and assembly promoter relative to paclitaxel (microtubules [2]): twice as active as paclitaxel
- activity as microtubule-depolymerizing inhibitor relative to paclitaxel (microtubules [2]): twice as active as paclitaxel
- anti-tumor activity in vitro relative to paclitaxel (cancer cells): 1.3˜12 times more active
